Reference: US10780101B2, “Amide derivatives of squalamine for the treatment of infections” (VIRBAC, priority 2016, dated 2020)
≈ marks a conversion by molar mass, not a printed value.

Columns and labels:
E. coli Animal (1956) = experiment: MIC determination, E. coli animal (1956); format: cell-based; conditions: Escherichia coli; Gram-negative; Mueller-Hinton medium, 24 h at 37° C.
Method: (§1) A negative control (2 mL of sterile culture medium)
(§2) A positive control (1940 μL of culture medium+40 μL of DMSO+20 μL of the bacterial suspension) from a thawed biological strain (the biological strains are stored at −80° C. in glycerol).
(§3) The tubes were incubated at 37° C. for 24 hours at 100 rpm.
(§4) The microorganisms were handled under a type L2 laboratory fume cupboard and, before any handling, a UV cycle was programmed and only sterile material was used. […] The chemical compounds to be tested were prepared in a DMSO/methanol mixture (50/50) at a concentration of 5 mg/mL.
(§5) After 24 hours of incubation, a measurement of the optical density was taken using a spectrophotometer at 600 nm, collecting 100 μL of the bacterial suspension diluted in 900 μL of the sterile culture medium. This test required the use of a 96-well plate and the required volume of the microbial suspension to be seeded was calculated for an OD corresponding to a value equal to 0.01 in each well. In this plate, the first line corresponded to the negative control (195 μL of sterile culture medium in each well), the second line corresponded to the positive control (seeded culture medium supplemented with 2% of DMSO), and the third line was loaded twice with bacterial suspension; 8 μL of test product were placed in each well. Thereafter, a 0.5 cascade dilution was performed from this line.
(§6) The first column served as inhibition control. A sterile filter was then placed on the microplate, allowing the passage of gases but not of contaminants. The microplate was incubated at 37° C. under a humid atmosphere for 24 hours.
(§7) NB: The medium used is Mueller-Hinton (MH) medium for bacteria. All the tests were performed in duplicate.
(§8) After incubation, the filter was replaced with a transparent film, and an OD reading was then taken in an iEMS plate spectrophotometer at 620 nm. Calculation of the minimum inhibitory concentration (MIC) was performed.

CHO-K1 cells = experiment: WST1 cytotoxicity test on CHO-K1 cells; format: cell-based, Chinese hamster; conditions: Cricetulus griseus, CHO-K1, 24 h, read-out: IC50 (μg/mL) CHO
Method: Test WST1 was used to measure the cytotoxic activity of the products. This is a colorimetric test which makes it possible to measure the viability and the degree of cell proliferation. It is based on cleavage of the colorless tetrazolium salts WST-1 (4-[3-(4-iodophenyl)-2-(4-nitrophenyl)-2H-5-tetrazolio]-1,3-benzene disulfonate) with mitochondrial dehydrogenases to the yellow-colored formazan derivative, which may be quantified by spectrophotometry at 420-480 nm.
The WST1 test was performed on Chinese hamster ovary cells. The CHO-K1 cells (ATCC, USA) are kept in culture in McCoy's 5A medium supplemented with 10% fetal calf serum, 2 mM of L-glutamine and a mixture of penicillin-streptomycin (100 U/ml: 10 μg/ml). The culture is incubated at 37° C. under an atmosphere enriched in CO2 (5%), and subcultured every two days.
The cells are transferred into 96-well plates (25000 cells/mL) in whole McCoy's 5A medium, and maintained for 24 hours at 37° C. under a humid atmosphere enriched in CO2 (5%). Increasing concentrations of test products are added to the wells in double tests and 8 growth controls containing the cells in the medium alone are included in each series of tests. After 24 hours at 37° C. (5% CO2), the culture medium is removed, the cells are rinsed in phosphate buffer (PBS) and 50 μL of PBS containing 10% of reagent WST1 are added to each well. After 20 minutes of incubation at 37° C., the results are read by spectrophotometry at 450 nm.
The results are expressed in dose-response relationships, modeled by nonlinear regression analysis using the TableCurve software. The 50% inhibitory concentration (IC50) represents the concentration of product that is capable of reducing the cell viability by 50%.

S. aureus Animal (340) = experiment: MIC determination, S. aureus animal (340); format: cell-based; conditions: Staphylococcus aureus; Gram-positive; Mueller-Hinton medium, 24 h at 37° C.
Method: as §1, §2, §3, §4, §5, §6, §7, §8

[1] = test system: S. aureus Human ATCC 25923; experiment: MIC determination, S. aureus human ATCC 25923; format: cell-based; conditions: Staphylococcus aureus, ATCC25923; Gram-positive; Mueller-Hinton medium, 24 h at 37° C.
Method: as §1, §2, §3, §4, §5, §6, §7, §8

[2] = test system: S. intermedius Animal (1051997); experiment: MIC determination, S. intermedius animal (1051997); format: cell-based; conditions: Staphylococcus intermedius; Gram-positive; Mueller-Hinton medium, 24 h at 37° C.
Method: as §1, §2, §3, §4, §5, §6, §7, §8

E. coli Human ATCC 28922 = experiment: MIC determination, E. coli human ATCC 28922; format: cell-based; conditions: Escherichia coli, ATCC28922; Gram-negative; Mueller-Hinton medium, 24 h at 37° C.
Method: as §1, §2, §3, §4, §5, §6, §7, §8

[3] = test system: E. faecalis Human ATCC 29212; experiment: MIC determination, E. faecalis human ATCC 29212; format: cell-based; conditions: Enterococcus faecalis, ATCC29212; Gram-positive; Mueller-Hinton medium, 24 h at 37° C.
Method: as §1, §2, §3, §4, §5, §6, §7, §8

[4] = test system: P. aeruginosa Animal (1051575); experiment: MIC determination, P. aeruginosa animal (1051575); format: cell-based; conditions: Pseudomonas aeruginosa; Gram-negative; Mueller-Hinton medium, 24 h at 37° C.
Method: as §1, §2, §3, §4, §5, §6, §7, §8

P. aeruginosa (1051575) = experiment: Potentiation of doxycycline activity (combination MIC); format: cell-based, Pseudomonas aeruginosa; conditions: in presence of doxycycline 2 μg/mL; 24 hours at 37° C.
[5] = test system: P. aeruginosa Human ATCC 27853; experiment: MIC determination, P. aeruginosa human ATCC 27853; format: cell-based; conditions: Pseudomonas aeruginosa, ATCC27853; Gram-negative; Mueller-Hinton medium, 24 h at 37° C.
Method: as §1, §2, §3, §4, §5, §6, §7, §8

Compound | MIC (E. coli Animal (1956)) [µg/mL] | IC50 (CHO-K1 cells) [µg/mL] | MIC (S. aureus Animal (340)) [µg/mL] | MIC [1] [µg/mL] | MIC [2] [µg/mL] | MIC (E. coli Human ATCC 28922) [µg/mL] | MIC [3] [µg/mL] | MIC [4] [µg/mL] | MIC - P. aeruginosa (1051575): content of compound of formula (I) to restore the doxycycline activity (at 2 μg/mL) (P. aeruginosa (1051575)) [µg/mL] | MIC [5] [µg/mL]
CC(C)NC(=O)CC[C@@H](C)[C@H]1CCC2C3C(CC[C@@]21C)[C@@]1(C)CC[C@H](NCCCNCCCNCCCN)CC1C[C@@H]3O (stereo partly drawn) [(14), 3β-norspermino-N-isopropylursodeoxycholamide] | 128 (≈ 212 µM) | 90 (≈ 149 µM) | 32 (≈ 53 µM) | 16 (≈ 26.5 µM) | 4 (≈ 6.62 µM) | 128 (≈ 212 µM) | 128 (≈ 212 µM) | 128 (≈ 212 µM) | 1 | 64 (≈ 106 µM)
CC(C)NC(=O)CC[C@@H](C)[C@H]1CCC2C3C(CC[C@@]21C)[C@@]1(C)CC[C@H](NCCCN(C)CCCN)CC1C[C@@H]3O (stereo partly drawn) [(28), 3β-(bis(3-aminopropyl)methylamine)-N-isopropylursodeoxycholamide] | 112 (≈ 200 µM) | 28 (≈ 49.9 µM) | 28 (≈ 49.9 µM) | 28 (≈ 49.9 µM) | 14 (≈ 25 µM) | 56 (≈ 99.8 µM) | 56 (≈ 99.8 µM) | 112 (≈ 200 µM) | 7 | 112 (≈ 200 µM)
CC(C)NC(=O)CC[C@@H](C)[C@H]1CCC2C3CCC4C[C@@H](NCCCNCCCN)CC[C@]4(C)C3CC[C@@]21C (stereo partly drawn) [(18), 3β-norspermidino-N-isopropyllithocholamide] | 3 (≈ 5.65 µM) | 20 (≈ 37.7 µM) | 3 (≈ 5.65 µM) | 6 (≈ 11.3 µM) | 0.8 (≈ 1.51 µM) | 26 (≈ 49 µM) | 12 (≈ 22.6 µM) | 26 (≈ 49 µM) | 0.8 | 104 (≈ 196 µM)
C[C@H](CCC(=O)NC1CCCCC1)[C@H]1CCC2C3C(CC[C@@]21C)[C@@]1(C)CC[C@H](NCCCNCCCN)CC1C[C@H]3O (stereo partly drawn) [(38), 3β-norspermidino-N-cyclohexylchenodeoxycholamide] | 15 (≈ 25.6 µM) | 12 (≈ 20.4 µM) | 4 (≈ 6.81 µM) | 4 (≈ 6.81 µM) | 2 (≈ 3.41 µM) | 30 (≈ 51.1 µM) | 4 (≈ 6.81 µM) | 30 (≈ 51.1 µM) | 2 | 30 (≈ 51.1 µM)
CNC(=O)CC[C@@H](C)[C@H]1CCC2C3C(CC[C@@]21C)[C@@]1(C)CC[C@H](NCCCN2CCN(CCCN)CC2)CC1C[C@H]3O (stereo partly drawn) [(12), 3β-(1,4-bis(3-aminopropyl)piperazine)-N-methylchenodeoxycholamide] | 15 (≈ 25.5 µM) | 50 (≈ 85 µM) | 4 (≈ 6.8 µM) | 8 (≈ 13.6 µM) | 2 (≈ 3.4 µM) | 30 (≈ 51 µM) | 15 (≈ 25.5 µM) | 30 (≈ 51 µM) | 8 | 60 (≈ 102 µM)
CC(C)NC(=O)CC[C@@H](C)[C@H]1CCC2C3CCC4C[C@@H](NCCCNCCCNCCCN)CC[C@]4(C)C3CC[C@@]21C (stereo partly drawn) [(17), 3β-norspermino-N-isopropyllithocholamide] | 32 (≈ 54.4 µM) | 17 (≈ 28.9 µM) | 8 (≈ 13.6 µM) | 8 (≈ 13.6 µM) | 4 (≈ 6.8 µM) | 16 (≈ 27.2 µM) | 8 (≈ 13.6 µM) | 32 (≈ 54.4 µM) | 2 | 64 (≈ 109 µM)
